# What was measured:
# PANC-1 cells = assay: RNA-seq gene expression, PANC-1; assay type: cell-based, human; settings: for 1/2-SBSRNA4 logFC PANC-1 / A1BG logFC PANC-1 / A1BG-AS1 logFC PANC-1 / A2LD1 logFC PANC-1 / A4GALT logFC PANC-1: 300 nM gemcitabine
# Text: (§1) CM03 is a potent G4 ligand, as shown by the FRET and quantitative binding experiments reported here. We therefore reasoned that the potent CM03 antiproliferative activity on PDAC cells could be mediated through a G4-targeting mechanism. To test this hypothesis, we determined whether transcriptome changes upon early CM03 treatment were correlated with G4 presence in promoters and/or gene bodies. […] The time and dose of CM03 treatment were selected to reveal initial but robust mRNA changes while minimizing chronic effects due to cell toxicity. In both cell lines, the number of genes with altered expression (as defined by >0.5 increase in Log 2 of fold change [Log2 FC], or < −0.5 decrease; false discovery rate [FDR] < 0.1) increased with duration of CM03 treatment. In PANC-1 cells 2165 genes at 6 h and 3977 genes at 24 h were seen to change, while in MIA PaCa-2 cells, 5306 genes changed at 6 h and 5477 genes at 24 h compared to untreated controls (Supporting Information, Table 1). […] To validate that the targeting of G4-containing genes is not a general feature of antiproliferative agents, we also examined the effects of the first-line therapeutic agent for PDAC, gemcitabine,[37] a potent antiproliferative DNA synthesis inhibitor whose mechanism of action is G4-independent and which remains a standard therapy option in advanced PDAC. Both cell lines were treated with a range of gemcitabine concentrations (Supporting Information, Figure 4, Table 4) for 6 or 24 h.
# (§2) The PDAC cell lines PANC-1 (ATCC, catalogue no. CRL-1469) and MIA PaCa-2 (ATCC, catalogue no. CRL-142) were maintained in DMEM (ThermoFisher, catalogue no. 11965092) supplemented with 10% (v/v) heat inactivated FBS (ThermoFisher) in a humidified atmosphere containing 5% CO2 at 37 °C. Cell lines were confirmed mycoplasma free by RNA-capture ELISA, and their genotypes were certified by STR profiling.
# (§3) PANC-1 (0.35 × 10^6 cells/well) and MIA PaCa-2 (1.5 × 10^6 cells/well) cell lines were seeded overnight in 60 mm plates. Next day, cells were treated with 400 nM CM03 for 6 and 24 h. For gemcitabine treatment, cells were treated for 6 and 24 h with DMSO or 30 nM, 100 nM, 300 nM, 1 μM, 3 μM, and 10 μM gemcitabine-HCL for PANC-1 cells and 30 nM, 300 nM, and 3 μM gemcitabine-HCl for MIA PaCa-2 cells. Total RNA was extracted using the Qiagen RNeasy Plus Mini Kit (ThermoFisher, catalogue no. 74134) as per the manufacturer’s instructions. RNA quality (RIN > 9.0) was checked with an Aligent 2100 bioanalyzer RNA 6000 Nano Chip, and RNA concentration was quantified using a Qubit fluorometer (ThermoFisher) and Qubit RNA HS Assay Kit (Qiagen, catalogue no. Q32852). RNA-seq libraries were then generated using the Illumina Truseq RNA HT (stranded mRNA) kit (Illumina, catalogue no. RS-122–2103) as per the manufacturer’s instructions and sequenced using an Illumina HiSeq4000.
# (§4) Fastq raw sequencing files were preprocessed using cutadapt[81] to remove sequencing adapters and low quality sequencing tails (options −q 10) and then aligned to the human genome (GRCh37/hg19) using tophat2[82] and using the UCSC gtf file provided by Illumina iGenomes as an annotation file (http://support.illumina.com/sequencing/sequencing_software/igenome.html). Gene counts were calculated using htseq-count[83] and the same gtf file. Differential expression analysis was done using the R package edgeR.[84] Differentially expressed genes were estimated independently for both cell lines (MIA PaCa-2 and PANC-1) and for the different time points (6 and 24 h) and were then intersected to inspect the common genes. The sequencing data is available at the GEO public functional genomics data repository (https://www.ncbi.nlm.nih.gov/geo/) as GSE105083. Details of the putative G4 sequence (PQs) analysis are given in the Supporting Information.
# MIA PaCa-2 cells = assay: RNA-seq gene expression, MIA PaCa-2; assay type: cell-based, human; settings: for 1/2-SBSRNA4 logFC MIA PaCa-2 / A1BG logFC MIA PaCa-2 / A1BG-AS1 logFC MIA PaCa-2 / A2LD1 logFC MIA PaCa-2 / A4GALT logFC MIA PaCa-2: 300 nM gemcitabine
# Text: as §1, §2, §3, §4
structure (smiles),measurement,setting,value
"O=C1c2ccc3c4c(c(NCCN5CCCC5)cc(c24)C(=O)N1CCCN1CCOCC1)C(=O)N(CCCN1CCOCC1)C3=O [CM03, 2,7-bis(3-morpholinopropyl)-4-((2-(pyrrolidin-1-yl)ethyl)amino)benzo[lmn][3,8]phenanthroline-1,3,6,8(2H,7H)-tetraone]",number of genes with altered expression,"PANC-1 cells; 400 nM CM03, 6 h, PANC-1, Log2 FC >0.5 or < −0.5, FDR < 0.1",2165
same,number of genes with altered expression,"PANC-1 cells; 400 nM CM03, 24 h, PANC-1",3977
same,A1BG Log FC ([6h] vs [Control]) PANC-1,"PANC-1 cells; RNA-seq, 400 nM CM03, 6 h",-0.2704
same,A1BG-AS1 Log FC ([6h] vs [Control]) PANC-1,"PANC-1 cells; RNA-seq, 400 nM CM03, 6 h",-1.747
same,A2LD1 Log FC ([6h] vs [Control]) PANC-1,"PANC-1 cells; RNA-seq, 400 nM CM03, 6 h",-0.1242
same,AAAS Log FC ([6h] vs [Control]) PANC-1,"PANC-1 cells; RNA-seq, 400 nM CM03, 6 h",-0.01012
same,AACS logFC 6h PANC-1,"PANC-1 cells; RNA-seq, 400 nM CM03, 6 h",-0.1667
same,A1BG Log FC ([24h] vs [Control]) PANC-1,"PANC-1 cells; RNA-seq, 400 nM CM03, 24 h",-0.2368
same,A2LD1 Log FC ([24h] vs [Control]) PANC-1,"PANC-1 cells; RNA-seq, 400 nM CM03, 24 h",-0.09987
same,AAAS Log FC ([24h] vs [Control]) PANC-1,"PANC-1 cells; RNA-seq, 400 nM CM03, 24 h",-0.5132
same,AACS logFC 24h PANC-1,"PANC-1 cells; RNA-seq, 400 nM CM03, 24 h",0.00469
same,1/2-SBSRNA4 Log FC ([6h] vs [Control]) MIA PaCa-2,"MIA PaCa-2 cells; 400 nM CM03, 6 h",0.2926
same,A1BG Log FC ([6h] vs [Control]) MIA PaCa-2,"MIA PaCa-2 cells; 400 nM CM03, 6 h",0.4876
same,A2LD1 Log FC ([6h] vs [Control]) MIA PaCa-2,"MIA PaCa-2 cells; 400 nM CM03, 6 h",-0.3929
same,AAAS Log FC ([6h] vs [Control]) MIA PaCa-2,"MIA PaCa-2 cells; 400 nM CM03, 6 h",-0.00561
same,AACS LogFC 6h MIA PaCa-2,"MIA PaCa-2 cells; 400 nM CM03, 6 h",0.2527
same,1/2-SBSRNA4 Log FC ([24h] vs [Control]) MIA PaCa-2,"MIA PaCa-2 cells; 400 nM CM03, 24 h",0.1438
same,A1BG Log FC ([24h] vs [Control]) MIA PaCa-2,"MIA PaCa-2 cells; 400 nM CM03, 24 h",-0.4265
same,A2LD1 Log FC ([24h] vs [Control]) MIA PaCa-2,"MIA PaCa-2 cells; 400 nM CM03, 24 h",0.03755
same,A4GALT Log FC ([24h] vs [Control]) MIA PaCa-2,"MIA PaCa-2 cells; 400 nM CM03, 24 h",0.6327
same,AAAS Log FC ([24h] vs [Control]) MIA PaCa-2,"MIA PaCa-2 cells; 400 nM CM03, 24 h",-0.483
same,AACS LogFC 24h MIA PaCa-2,"MIA PaCa-2 cells; 400 nM CM03, 24 h",-0.2395
"Nc1ccn([C@@H]2O[C@H](CO)[C@@H](O)C2(F)F)c(=O)n1 [gemcitabine, reference compound]",1/2-SBSRNA4 logFC PANC-1,"PANC-1 cells; RNA-seq, 6 h",0.2646
same,A1BG logFC PANC-1,"PANC-1 cells; RNA-seq, 6 h",-0.08914
same,A1BG-AS1 logFC PANC-1,"PANC-1 cells; RNA-seq, 6 h",0.1407
same,A2LD1 logFC PANC-1,"PANC-1 cells; RNA-seq, 6 h",-0.1053
same,A4GALT logFC PANC-1,"PANC-1 cells; RNA-seq, 6 h",0.005472
same,1/2-SBSRNA4 logFC PANC-1,"PANC-1 cells; RNA-seq, 24 h",0.6908
same,A1BG logFC PANC-1,"PANC-1 cells; RNA-seq, 24 h",-0.1465
same,A1BG-AS1 logFC PANC-1,"PANC-1 cells; RNA-seq, 24 h",1.012
same,A2LD1 logFC PANC-1,"PANC-1 cells; RNA-seq, 24 h",-0.7315
same,A4GALT logFC PANC-1,"PANC-1 cells; RNA-seq, 24 h",0.6241
same,1/2-SBSRNA4 logFC MIA PaCa-2,MIA PaCa-2 cells; 6 h,-0.2087
same,A1BG logFC MIA PaCa-2,MIA PaCa-2 cells; 6 h,0.04195
same,A1BG-AS1 logFC MIA PaCa-2,MIA PaCa-2 cells; 6 h,-0.914
same,A2LD1 logFC MIA PaCa-2,MIA PaCa-2 cells; 6 h,-0.1941
same,A4GALT logFC MIA PaCa-2,MIA PaCa-2 cells; 6 h,-0.8586
same,1/2-SBSRNA4 logFC MIA PaCa-2,MIA PaCa-2 cells; 24 h,-0.5295
same,A1BG logFC MIA PaCa-2,MIA PaCa-2 cells; 24 h,0.6604
same,A1BG-AS1 logFC MIA PaCa-2,MIA PaCa-2 cells; 24 h,-0.1194
same,A2LD1 logFC MIA PaCa-2,MIA PaCa-2 cells; 24 h,-0.3751
same,A4GALT logFC MIA PaCa-2,MIA PaCa-2 cells; 24 h,-0.2021

# Reference: article PMC5867665, “Targeting Multiple Effector Pathways in Pancreatic Ductal Adenocarcinoma with a G-Quadruplex-Binding Small Molecule” (Journal of Medicinal Chemistry, 2018)
